What all share (experiment): Enzymatic Activity Assay
Common to all, as to settings: pH 7.5; 22 °C

The target of experiment [1] is Serine/threonine-protein kinase PLK3 (Homo sapiens, UniProt Q9H4B4).
In experiment [2] the target is Serine/threonine-protein kinase PLK2 (Homo sapiens, UniProt Q9NYY3).
Experiment [3] concerns the target Serine/threonine-protein kinase PLK1 (Homo sapiens, UniProt P53350).

Serine/threonine-protein kinase PLK1, sequence (P53350 whole entry): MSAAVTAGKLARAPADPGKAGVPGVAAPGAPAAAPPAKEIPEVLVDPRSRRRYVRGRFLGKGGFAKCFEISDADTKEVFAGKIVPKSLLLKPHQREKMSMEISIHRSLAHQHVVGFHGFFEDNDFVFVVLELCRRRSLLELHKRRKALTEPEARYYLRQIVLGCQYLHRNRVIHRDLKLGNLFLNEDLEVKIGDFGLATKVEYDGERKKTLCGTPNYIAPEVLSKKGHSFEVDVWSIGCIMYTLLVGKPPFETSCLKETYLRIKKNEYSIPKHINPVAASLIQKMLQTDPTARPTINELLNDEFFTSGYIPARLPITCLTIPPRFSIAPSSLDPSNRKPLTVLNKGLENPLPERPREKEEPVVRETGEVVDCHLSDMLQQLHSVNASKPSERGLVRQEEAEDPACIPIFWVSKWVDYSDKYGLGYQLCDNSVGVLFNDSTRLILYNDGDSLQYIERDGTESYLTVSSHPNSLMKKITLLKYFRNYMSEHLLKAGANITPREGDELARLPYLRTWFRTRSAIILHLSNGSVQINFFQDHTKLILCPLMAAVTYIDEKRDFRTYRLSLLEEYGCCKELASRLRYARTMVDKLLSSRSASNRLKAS
Serine/threonine-protein kinase PLK2, sequence (Q9NYY3 whole entry): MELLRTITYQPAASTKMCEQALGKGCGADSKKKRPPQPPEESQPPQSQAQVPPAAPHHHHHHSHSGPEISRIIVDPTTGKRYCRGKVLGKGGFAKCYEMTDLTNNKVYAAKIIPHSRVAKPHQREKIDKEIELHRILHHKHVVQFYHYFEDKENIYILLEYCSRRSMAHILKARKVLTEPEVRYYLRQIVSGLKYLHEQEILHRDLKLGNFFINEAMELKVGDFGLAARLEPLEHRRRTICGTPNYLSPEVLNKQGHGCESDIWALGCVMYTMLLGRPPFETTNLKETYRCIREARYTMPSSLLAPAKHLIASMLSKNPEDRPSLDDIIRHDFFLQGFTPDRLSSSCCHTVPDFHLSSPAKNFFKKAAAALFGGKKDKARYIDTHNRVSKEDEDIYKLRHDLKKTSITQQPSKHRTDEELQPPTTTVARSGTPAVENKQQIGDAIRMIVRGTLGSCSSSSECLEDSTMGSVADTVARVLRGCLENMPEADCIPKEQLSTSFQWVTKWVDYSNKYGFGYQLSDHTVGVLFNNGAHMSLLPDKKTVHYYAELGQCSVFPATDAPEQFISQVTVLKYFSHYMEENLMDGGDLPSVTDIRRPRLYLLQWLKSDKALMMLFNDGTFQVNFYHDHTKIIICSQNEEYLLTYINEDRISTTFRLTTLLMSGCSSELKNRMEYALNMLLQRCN
Serine/threonine-protein kinase PLK3, sequence (Q9H4B4 whole entry): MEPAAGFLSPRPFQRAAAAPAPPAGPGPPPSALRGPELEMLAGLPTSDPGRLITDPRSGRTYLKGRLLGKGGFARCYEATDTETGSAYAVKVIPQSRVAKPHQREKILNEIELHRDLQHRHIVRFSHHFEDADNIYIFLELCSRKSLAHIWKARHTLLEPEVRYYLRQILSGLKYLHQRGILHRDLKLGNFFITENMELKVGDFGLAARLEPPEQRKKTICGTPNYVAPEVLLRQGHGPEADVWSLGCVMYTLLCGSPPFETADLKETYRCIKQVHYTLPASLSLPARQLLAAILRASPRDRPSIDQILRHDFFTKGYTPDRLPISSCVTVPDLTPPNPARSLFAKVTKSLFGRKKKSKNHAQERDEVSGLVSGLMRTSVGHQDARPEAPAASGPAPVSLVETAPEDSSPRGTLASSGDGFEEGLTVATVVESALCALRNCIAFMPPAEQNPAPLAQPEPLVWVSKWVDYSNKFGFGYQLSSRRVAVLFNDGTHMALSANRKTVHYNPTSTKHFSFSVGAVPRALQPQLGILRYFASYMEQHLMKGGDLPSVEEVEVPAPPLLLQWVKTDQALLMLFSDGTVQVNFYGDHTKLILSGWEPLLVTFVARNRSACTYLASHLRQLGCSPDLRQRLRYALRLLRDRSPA

As to `COc1cc(N2CCN(C)CC2)ccc1Nc1ncc(C(C)=O)c(NC2CCCC2)n1` [1-[4-(cyclopentylamino)-2-{[2-methoxy-4-(4-methylpiperazin-1-yl)phenyl]amino}pyrimidin-5-yl]ethan-1-one], the half-inhibitory concentration (IC50) was 2580 nM in experiment [1], above 10000 nM in experiment [2] and 145 nM in experiment [3].

For the molecule `CC(=O)c1cnc(Nc2ccc(N3CCN(C)CC3)cc2)nc1NC1CCCC1` [1-[4-(cyclopentylamino)-2-{[4-(4-methylpiperazin-1-yl)phenyl]amino}pyrimidin-5-yl]ethan-1-one], the half-maximal inhibitory concentration (IC50) in experiment [1] amounted to 3490 nM; in experiment [2], 367 nM; in experiment [3], 345 nM.

For `CC[C@@H]1C(=O)N(C)c2cnc(Nc3ccc(C(=O)NC4CCN(C)CC4)cc3)nc2N1C1CCCC1` [4-{[(7R)-8-cyclopentyl-7-ethyl-5-methyl-6-oxo-5,6,7,8-tetrahydropteridin-2-yl]amino}-N-(1-methylpiperidin-4-yl)benzamide], the concentration for half-maximal inhibition (IC50) in experiment [1] worked out at 6.7 nM; in experiment [2], 11.5 nM; in experiment [3], 5 nM.

(Values after BindingDB's records for doi:10.1111/j.1747-0285.2007.00594.x (Pfizer, 2007).)
